Where two headings read alike, the source gives them in different places.
Legend:
[1] = system: CYP3A24 and its mutants (R105A, R372A, R440A); assay: Protein activity verification of CYP3A24 and its mutants with testosterone; conditions: TS 1 μmol/L, 60 min
Procedure: Testosterone (TS) is a specific substrate of CYP3A, which can generate 6β-OHTS under the action of CYP3A ([21]). In order to study the protein activity of CYP3A24 and its mutants, we incubated each protein with TS. The experimental steps were as follows: protein (0.5 mg/mL) and NADPH (1 mmol/L) were added to PBS (pH 7.4) for 10 min at 37°C, then TS (Dr. Ehrenstorfer GmbH, Germany, 1 μmol/L) was added to start the reaction. The total reaction volume was 200 μL. At 60 min after drug addition, 200 μL of ice-cold acetonitrile was added to terminate the reaction. After centrifugation at 12,000 g/min for 15 min, the supernatant was filtered through a 0.22 μm membrane and analyzed by LC-MS/MS (AB SCIEX API5000, USA). For TS and 6β-OHTS, chromatographic separation occurred using a Thermo Scientific Hypersil Gold C18 column (150 × 2.1 mm, 5 μm particles), and analytes were detected on an API5000 mass analyser. Mobile phase A was 0.1% formic acid in water, and mobile phase B was methanol. The flow rate was 0.2 mL/min with a linear gradient under the following conditions: 0–0.10 min 5–85% B, 0.10–4.10 min 85% B, 4.10–8.00 min 85–5% B. The injection volume was set to 10 μL.

CYP3A24 = assay: Incubation of recombinant CYP3A24 with FF and DOX (FFA production); format: in vitro ADME, goat; conditions: FF incubated with CYP3A24
CYP3A24 gene = assay: Gene expression of CYP3A24 in goat liver (qPCR); format: in vivo, goats
Procedure: Throughout the experiment, all goats had ad libitum access to feed and water without antibiotics. The goats were divided into three groups, namely the control group (6 animals), the single group (24 animals), and the combined group (24 animals). The control group was fed without medication. In the single group, FF (Zhonglongshenli Animal Pharmaceutical Co., Ltd. Hefei, China, specification: 10 mL: 1 g) was injected into the neck muscles at 48 h intervals, twice in total. In the combined group, FF was injected into the neck muscles at 48 h intervals, twice in total, and DOX-hyclate (Zhonglongshenli Animal Pharmaceutical Co., Ltd. Hefei, China, specification: 10 mL: 1 g) was injected into the neck muscles, once a day for 3 days. The volume of the treatment solution was calculated individually for each goat to provide a dose equivalent to 20 mg FF/kg bw and 10 mg DOX/kg bw. […]
Real-time quantitative polymerase chain reaction (qPCR) was used to detect the expression of CYP3A24 in treated goats. […] The concentration and purity of RNA was detected by Q3000 (Thermo, USA). […] The data were analyzed by the 2^ΔΔCt method.

[2] = Tissue residue depletion in goats (LC-MS/MS); format: in vivo, goats (Capra hircus); conditions: both sexes, Boaer-cross, intramuscular, i.m., mean ± SD, 4 goats; for concentration at 0.5 days: 0.5 days after last dose; for concentration at 1 day: 1 day after last dose
Procedure: In this study, a total of 54 Boaer-cross goats (Capra hircus) of both sexes, about 8 months old, were selected, weighing 28–36 kg. During the 1st week of acclimatization, all animals were raised in the usual way, with free access to feed and water. The experiment was conducted in accordance with the Guidelines for the Care and Use of Laboratory Animals issued by HZAU and approved by the Ethics Committee of Veterinary College of HZAU.
Throughout the experiment, all goats had ad libitum access to feed and water without antibiotics. The goats were divided into three groups, namely the control group (6 animals), the single group (24 animals), and the combined group (24 animals). The control group was fed without medication. In the single group, FF (Zhonglongshenli Animal Pharmaceutical Co., Ltd. Hefei, China, specification: 10 mL: 1 g) was injected into the neck muscles at 48 h intervals, twice in total. In the combined group, FF was injected into the neck muscles at 48 h intervals, twice in total, and DOX-hyclate (Zhonglongshenli Animal Pharmaceutical Co., Ltd. Hefei, China, specification: 10 mL: 1 g) was injected into the neck muscles, once a day for 3 days. The volume of the treatment solution was calculated individually for each goat to provide a dose equivalent to 20 mg FF/kg bw and 10 mg DOX/kg bw.
Goats of the single group (treated with FF) and goats of the combined group (treated with FF and DOX) were euthanized as previously described at 0.5 (n = 4), 1 (n = 4), 3 (n = 4), 7 (n = 4), 14 (n = 4), and 21 days (n = 4) after the last dose of 20 mg FF/kg bw (single group) and after the last dose of 20 mg FF/kg bw plus 10 mg DOX/kg bw (combined group). Goats were immediately exsanguinated, and tissue specimens of liver, kidney and muscle were collected separately. Each of the tissue specimens was carefully weighed and stored frozen at −20°C until assayed for concentrations of FF and FFA.
The method of FF and FFA pre-processing in the target tissues was as follows: Tissue samples weighing 1.00 ± 0.01 g were placed in a 10 mL centrifuge tube, then 5 mL 2% ammoniated ethyl acetate was added, and the tube was vortexed, sonicated and centrifuged. The above steps were repeated, and the supernatants were pooled and dried under a stream of nitrogen. The residue was reconstituted in 5% acetic acid in water, vortexed and passed through an MCX solid-phase extraction column (the order of the column was methanol, water, sample, 5% acetic acid water and 8% ammoniated ethyl acetate), then the eluate was dried under nitrogen, re-dissolved in 2 mL of degreased n-hexane, passed through a 0.22 μm filter membrane and subjected to LC-MS/MS (AB SCIEX API5000, USA) analysis.
All inter-assay coefficients of variation in each tissue were within 9.93%, the intra-assay coefficients of variation in each tissue were within 11.08%, and the recovery rates in each tissue were between 70.62 and 113.55%. […] For FF and FFA, the LOQ of the analysis was 10 μg/kg, and the LOD of the analysis was 2 μg/kg. The peak times of FFA and FF were 1.80 and 6.05, respectively (Figure 1).

CYP3A24 R440A = conditions: mutant R440A
CYP3A24 R372A = conditions: mutant R372A
[3] = goat, 20 mg/kg bw, kidney, read-out: Tissue concentration FF
[4] = goat, 20 mg/kg bw, liver, read-out: Tissue concentration FF
[5] = goat, 20 mg/kg bw, muscle, read-out: Tissue concentration FF

For `C[C@]12CC[C@H]3[C@@H](CCC4=CC(=O)CC[C@@]43C)[C@@H]1CC[C@@H]2O` [TS, Testosterone], the “metabolism of TS into 6β-OHTS” value [1] was “could metabolize TS”.
For `C[C@H]1c2cccc(O)c2C(=O)C2=C(O)[C@]3(O)C(=O)C(C(N)=O)=C(O)[C@@H](N(C)C)[C@@H]3[C@@H](O)[C@@H]21` [DOX, α-6-deoxy-5-hydroxytetracycline], the “reduction of FFA production on addition of DOX” value (CYP3A24) was 17.8%.
With `CS(=O)(=O)c1ccc([C@@H](O)[C@@H](CF)NC(=O)C(Cl)Cl)cc1` [FF] the “up-regulation of CYP3A24 gene expression compared to control” value (CYP3A24 gene; 1 day after treatment stopped) was “about 2.3 fold”, the “up-regulation of CYP3A24 gene expression compared to control” value (CYP3A24 gene; 3 days after treatment stopped) was roughly 3 fold and the concentration at 3 days after last dose ([2]; goat (Capra hircus), 20 mg FF/kg bw, liver, 3 days after last dose) was 936 ± 148 ng/g. The concentration at 7 days after last dose ([2]; goat (Capra hircus), 20 mg FF/kg bw, liver, 7 days after last dose) was 338 ± 126 ng/g, the concentration at 14 days after last dose ([2]; goat (Capra hircus), 20 mg FF/kg bw, liver, 14 days after last dose) was 179 ± 26.5 ng/g and the concentration at 21 days after last dose ([2]; goat (Capra hircus), 20 mg FF/kg bw, liver, 21 days after last dose) was 44.5 ± 17.6 ng/g. The concentration at 0.5 days [2, 3] was 2260 ± 203 ng/g, the concentration at 1 day [2, 3] was 1770 ± 142 ng/g and the concentration at 3 days ([2]; goat, 20 mg/kg bw, kidney, 3 days after last dose, read-out: Tissue concentration FF) was 843 ± 124 ng/g. It also gave a concentration at 7 days ([2]; goat, 20 mg/kg bw, kidney, 7 days after last dose, read-out: Tissue concentration FF) of 327 ± 43.4 ng/g, a concentration at 14 days ([2]; goat, 20 mg/kg bw, kidney, 14 days after last dose, read-out: Tissue concentration FF) of 131 ± 17.1 ng/g and a concentration at 21 days ([2]; goat, 20 mg/kg bw, kidney, 21 days after last dose, read-out: Tissue concentration FF) of 37.5 ± 8.6 ng/g. The concentration at 0.5 days [2, 4] was 2790 ± 257 ng/g, the concentration at 1 day [2, 4] was 2050 ± 310 ng/g and the concentration at 0.5 days [2, 5] was 1760 ± 201 ng/g. The concentration at 1 day [2, 5] was 858 ± 43.2 ng/g, the concentration at 3 days ([2]; goat, 20 mg/kg bw, muscle, 3 days after last dose, read-out: Tissue concentration FF) was 376 ± 58.1 ng/g and the concentration at 7 days ([2]; goat, 20 mg/kg bw, muscle, 7 days after last dose, read-out: Tissue concentration FF) was 162 ± 4.6 ng/g. The concentration at 14 days ([2]; goat, 20 mg/kg bw, muscle, 14 days after last dose, read-out: Tissue concentration FF) was 48.6 ± 7.6 ng/g, the “reduction of FF metabolism (FFA production) vs CYP3A24” value (CYP3A24 R440A) was 65.8% and the “reduction of FF metabolism (FFA production) vs CYP3A24” value (CYP3A24 R372A) was 32.9%.

— article PMC8558239, “Interaction Between Florfenicol and Doxycycline Involving Cytochrome P450 3A in Goats (Capra hricus)” (Frontiers in Veterinary Science, 2021)
